Where “and” joins values, the source holds several entries; their conditions need not be identical. Equal entries are not always repeated.
What was measured:
Assay in all cases: trFRET binding kinome profiling
[1] = target: Flt1 (Homo sapiens, UniProt P17948)
Procedure: (§1) JAK activity assays using isolated kinase domains in the presence of 0.1 mM ATP and trFRET kinome profiling were conducted as described previously (17).

[2] = target: TBK1 (Homo sapiens, UniProt Q9UHD2)
Procedure: as §1

[3] = target: Pim1 (Homo sapiens, UniProt P11309)
Procedure: as §1

[4] = target: CAMKK2 (Homo sapiens, UniProt Q96RR4)
Procedure: as §1

[5] = target: MEK1 (Homo sapiens, UniProt Q02750)
Procedure: as §1

[6] = target: ACVR1 (Homo sapiens, UniProt Q04771)
Procedure: as §1

[7] = target: KDR (Homo sapiens, UniProt P35968)
Procedure: as §1

[8] = target: AMPK
Procedure: as §1

[9] = target: MAP4K4 (Homo sapiens, UniProt O95819)
Procedure: as §1

[10] = target: JNK1 (Homo sapiens, UniProt P45983)
Procedure: as §1

[11] = target: TAOK2 (Homo sapiens, UniProt Q9UL54)
Procedure: as §1

[12] = target: Ck1alpha1 (Homo sapiens, UniProt P48729)
Procedure: as §1

[13] = target: DYRK1B (Homo sapiens, UniProt Q9Y463)
Procedure: as §1

[14] = target: TrkC (Homo sapiens, UniProt Q16288)
Procedure: as §1

[15] = target: PDGFRA V561D (Homo sapiens, UniProt P16234, V561D)
Procedure: as §1

[16] = target: CSF1R (Homo sapiens, UniProt P07333)
Procedure: as §1

[17] = target: CDK7/Cyclin H/Mat1 (Homo sapiens, UniProt P50613)
Procedure: as §1

[18] = target: PKG1A (Homo sapiens, UniProt Q13976)
Procedure: as §1

[19] = target: Rsk2 (Homo sapiens, UniProt P51812)
Procedure: as §1

[20] = target: BRAF (Homo sapiens, UniProt P15056)
Procedure: as §1

[21] = target: cMET (Homo sapiens, UniProt P08581)
Procedure: as §1

[22] = target: MAP4K2 (Homo sapiens, UniProt Q12851)
Procedure: as §1

[23] = target: CDK2 (Homo sapiens, UniProt P24941)
Procedure: as §1

[24] = target: MST1 (Homo sapiens, UniProt Q13043)
Procedure: as §1

[25] = target: PKCtheta (Homo sapiens, UniProt Q04759)
Procedure: as §1

[26] = target: SGK1 (Homo sapiens, UniProt O00141)
Procedure: as §1

[27] = target: Zipk (Homo sapiens, UniProt O43293)
Procedure: as §1

[28] = target: Rock1 (Homo sapiens, UniProt Q13464)
Procedure: as §1

[29] = target: RET (Homo sapiens, UniProt P07949)
Procedure: as §1

[30] = target: CLK2 (Homo sapiens, UniProt P49760)
Procedure: as §1

[31] = target: CDK8/Cyclin C (Homo sapiens, UniProt P49336)
Procedure: as §1

[32] = target: Gsk3b (Homo sapiens, UniProt P49841)
Procedure: as §1

[33] = target: TYRO3 (Homo sapiens, UniProt Q06418)
Procedure: as §1

[34] = target: TrkA (Homo sapiens, UniProt P04629)
Procedure: as §1

[35] = target: Akt1 (Homo sapiens, UniProt P31749)
Procedure: as §1

[36] = target: LCK (Homo sapiens, UniProt P06239)
Procedure: as §1

[37] = target: Erk2 (Homo sapiens, UniProt P28482)
Procedure: as §1

[38] = target: MAP2K3 (Homo sapiens, UniProt P46734)
Procedure: as §1

[39] = target: Rock2 (Homo sapiens, UniProt O75116)
Procedure: as §1

[40] = target: BTK (Homo sapiens, UniProt Q06187)
Procedure: as §1

[41] = target: Wee1 (Homo sapiens, UniProt P30291)
Procedure: as §1

[42] = target: CAMK2A (Homo sapiens, UniProt Q9UQM7)
Procedure: as §1

[43] = target: STK16 (Homo sapiens, UniProt O75716)
Procedure: as §1

[44] = target: FAK (Homo sapiens, UniProt Q05397)
Procedure: as §1

[45] = target: Src (Homo sapiens, UniProt P12931)
Procedure: as §1

[46] = target: MAP3K10 (Homo sapiens, UniProt Q02779)
Procedure: as §1

Sequence of Rock1 (Q13464 whole entry, species assumed): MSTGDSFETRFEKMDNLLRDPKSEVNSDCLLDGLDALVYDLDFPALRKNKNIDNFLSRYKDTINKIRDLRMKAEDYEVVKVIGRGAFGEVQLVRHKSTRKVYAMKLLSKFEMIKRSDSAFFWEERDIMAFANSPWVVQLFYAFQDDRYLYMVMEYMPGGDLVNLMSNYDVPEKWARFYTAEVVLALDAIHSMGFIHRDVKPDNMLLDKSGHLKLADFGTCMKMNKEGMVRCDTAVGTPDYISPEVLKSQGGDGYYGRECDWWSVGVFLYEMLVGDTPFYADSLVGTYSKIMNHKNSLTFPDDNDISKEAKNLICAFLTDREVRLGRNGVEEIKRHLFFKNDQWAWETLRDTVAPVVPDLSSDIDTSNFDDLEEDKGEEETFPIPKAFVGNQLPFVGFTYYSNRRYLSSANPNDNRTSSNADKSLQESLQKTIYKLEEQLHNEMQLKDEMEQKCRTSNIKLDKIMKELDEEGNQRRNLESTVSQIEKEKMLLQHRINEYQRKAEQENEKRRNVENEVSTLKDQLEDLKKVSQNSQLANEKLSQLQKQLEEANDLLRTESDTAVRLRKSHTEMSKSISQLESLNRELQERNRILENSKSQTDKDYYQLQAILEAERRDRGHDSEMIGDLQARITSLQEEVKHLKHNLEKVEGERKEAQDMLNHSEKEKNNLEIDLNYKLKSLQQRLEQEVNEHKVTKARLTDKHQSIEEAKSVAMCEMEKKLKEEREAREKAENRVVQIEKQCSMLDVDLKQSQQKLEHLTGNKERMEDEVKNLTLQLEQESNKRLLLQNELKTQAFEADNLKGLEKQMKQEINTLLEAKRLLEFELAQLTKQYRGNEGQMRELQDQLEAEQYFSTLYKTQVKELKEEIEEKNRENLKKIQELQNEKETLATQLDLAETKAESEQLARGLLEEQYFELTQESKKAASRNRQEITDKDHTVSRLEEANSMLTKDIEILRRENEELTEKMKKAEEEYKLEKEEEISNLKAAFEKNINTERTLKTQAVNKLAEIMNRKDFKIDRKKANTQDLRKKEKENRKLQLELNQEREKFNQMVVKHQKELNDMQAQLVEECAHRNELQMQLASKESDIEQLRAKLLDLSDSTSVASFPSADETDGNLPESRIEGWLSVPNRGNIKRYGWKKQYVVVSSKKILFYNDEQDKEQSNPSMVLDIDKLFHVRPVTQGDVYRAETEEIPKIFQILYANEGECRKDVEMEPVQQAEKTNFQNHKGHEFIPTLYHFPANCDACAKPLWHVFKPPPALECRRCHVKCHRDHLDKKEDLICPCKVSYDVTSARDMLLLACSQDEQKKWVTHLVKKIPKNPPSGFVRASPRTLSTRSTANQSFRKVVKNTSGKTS
Sequence of MEK1 (Q02750 whole entry, species assumed): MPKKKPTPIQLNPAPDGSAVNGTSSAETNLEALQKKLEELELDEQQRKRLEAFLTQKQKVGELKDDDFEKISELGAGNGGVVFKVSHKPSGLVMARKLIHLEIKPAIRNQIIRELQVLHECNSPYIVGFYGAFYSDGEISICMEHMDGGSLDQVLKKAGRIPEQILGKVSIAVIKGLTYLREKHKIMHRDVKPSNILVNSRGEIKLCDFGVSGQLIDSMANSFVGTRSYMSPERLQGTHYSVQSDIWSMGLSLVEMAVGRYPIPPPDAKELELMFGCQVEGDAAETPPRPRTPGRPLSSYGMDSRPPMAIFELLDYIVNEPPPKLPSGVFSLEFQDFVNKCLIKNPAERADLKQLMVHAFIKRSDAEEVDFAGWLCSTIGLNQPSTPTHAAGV
Sequence of cMET (P08581 25-1390): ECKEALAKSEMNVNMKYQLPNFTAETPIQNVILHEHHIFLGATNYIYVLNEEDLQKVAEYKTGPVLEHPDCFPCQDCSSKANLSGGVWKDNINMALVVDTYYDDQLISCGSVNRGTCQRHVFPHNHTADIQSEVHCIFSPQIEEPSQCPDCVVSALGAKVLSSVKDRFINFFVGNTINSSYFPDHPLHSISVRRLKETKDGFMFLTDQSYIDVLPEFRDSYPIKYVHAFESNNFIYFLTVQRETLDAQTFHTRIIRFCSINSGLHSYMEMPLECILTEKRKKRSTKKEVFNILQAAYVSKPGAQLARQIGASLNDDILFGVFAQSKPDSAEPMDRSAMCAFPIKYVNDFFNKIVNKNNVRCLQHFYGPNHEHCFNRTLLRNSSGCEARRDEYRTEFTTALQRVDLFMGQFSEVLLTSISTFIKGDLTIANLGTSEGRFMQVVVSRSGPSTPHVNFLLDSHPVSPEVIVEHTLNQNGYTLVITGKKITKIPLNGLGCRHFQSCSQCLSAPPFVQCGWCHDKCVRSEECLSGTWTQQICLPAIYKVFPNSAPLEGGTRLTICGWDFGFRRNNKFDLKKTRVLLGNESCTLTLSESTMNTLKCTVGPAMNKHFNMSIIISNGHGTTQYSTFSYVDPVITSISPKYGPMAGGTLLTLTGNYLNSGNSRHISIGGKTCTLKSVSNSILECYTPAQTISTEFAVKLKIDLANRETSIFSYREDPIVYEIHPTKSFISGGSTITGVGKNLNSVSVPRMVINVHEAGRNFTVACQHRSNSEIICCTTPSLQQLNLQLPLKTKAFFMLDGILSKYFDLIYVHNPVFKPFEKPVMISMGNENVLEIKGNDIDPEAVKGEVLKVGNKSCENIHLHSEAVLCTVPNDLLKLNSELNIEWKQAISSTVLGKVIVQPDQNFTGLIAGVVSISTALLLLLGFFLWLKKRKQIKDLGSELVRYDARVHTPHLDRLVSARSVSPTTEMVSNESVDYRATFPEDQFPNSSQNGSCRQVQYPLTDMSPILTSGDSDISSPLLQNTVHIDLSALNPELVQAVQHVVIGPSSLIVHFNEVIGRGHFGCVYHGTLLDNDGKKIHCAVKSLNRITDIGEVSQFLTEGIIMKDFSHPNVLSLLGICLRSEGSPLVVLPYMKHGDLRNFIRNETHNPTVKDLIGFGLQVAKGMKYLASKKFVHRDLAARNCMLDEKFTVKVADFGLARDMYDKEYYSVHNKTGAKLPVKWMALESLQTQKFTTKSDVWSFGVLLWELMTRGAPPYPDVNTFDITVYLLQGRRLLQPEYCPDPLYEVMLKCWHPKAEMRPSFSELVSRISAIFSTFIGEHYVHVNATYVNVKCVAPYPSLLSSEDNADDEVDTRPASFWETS
Sequence of TrkA (P04629 33-796, species assumed): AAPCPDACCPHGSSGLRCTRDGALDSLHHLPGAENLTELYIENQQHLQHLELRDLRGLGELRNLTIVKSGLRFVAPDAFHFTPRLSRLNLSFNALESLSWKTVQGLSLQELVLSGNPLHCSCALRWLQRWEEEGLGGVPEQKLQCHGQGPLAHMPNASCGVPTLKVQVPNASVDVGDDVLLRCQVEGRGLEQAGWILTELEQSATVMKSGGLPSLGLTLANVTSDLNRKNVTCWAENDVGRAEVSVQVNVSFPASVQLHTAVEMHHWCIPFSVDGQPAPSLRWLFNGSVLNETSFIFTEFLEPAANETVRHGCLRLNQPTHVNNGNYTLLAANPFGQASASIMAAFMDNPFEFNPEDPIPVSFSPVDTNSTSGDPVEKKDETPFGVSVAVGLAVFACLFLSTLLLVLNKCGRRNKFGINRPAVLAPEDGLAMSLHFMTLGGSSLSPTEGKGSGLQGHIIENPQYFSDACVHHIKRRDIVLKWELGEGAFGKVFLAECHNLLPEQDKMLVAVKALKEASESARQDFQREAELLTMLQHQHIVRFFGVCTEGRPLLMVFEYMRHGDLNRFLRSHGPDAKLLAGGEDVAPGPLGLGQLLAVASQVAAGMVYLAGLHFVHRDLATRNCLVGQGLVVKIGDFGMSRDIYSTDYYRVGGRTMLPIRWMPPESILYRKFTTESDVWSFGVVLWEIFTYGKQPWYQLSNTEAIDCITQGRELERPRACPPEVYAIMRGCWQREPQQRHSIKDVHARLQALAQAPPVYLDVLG
Sequence of Akt1 (P31749 whole entry, species assumed): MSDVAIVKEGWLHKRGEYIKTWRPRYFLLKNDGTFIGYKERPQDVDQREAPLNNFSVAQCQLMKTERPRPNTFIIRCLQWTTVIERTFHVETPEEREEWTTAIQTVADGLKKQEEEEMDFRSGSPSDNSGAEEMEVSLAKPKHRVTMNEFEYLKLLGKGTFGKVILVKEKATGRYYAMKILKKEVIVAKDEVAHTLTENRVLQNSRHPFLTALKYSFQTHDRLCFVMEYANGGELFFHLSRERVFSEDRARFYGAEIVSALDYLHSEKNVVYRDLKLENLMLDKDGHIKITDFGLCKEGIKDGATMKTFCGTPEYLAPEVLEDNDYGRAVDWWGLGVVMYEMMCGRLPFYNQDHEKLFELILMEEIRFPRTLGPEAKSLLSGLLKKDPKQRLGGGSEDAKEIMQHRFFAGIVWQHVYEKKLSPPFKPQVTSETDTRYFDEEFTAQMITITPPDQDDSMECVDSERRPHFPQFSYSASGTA
Sequence of PKCtheta (Q04759 whole entry): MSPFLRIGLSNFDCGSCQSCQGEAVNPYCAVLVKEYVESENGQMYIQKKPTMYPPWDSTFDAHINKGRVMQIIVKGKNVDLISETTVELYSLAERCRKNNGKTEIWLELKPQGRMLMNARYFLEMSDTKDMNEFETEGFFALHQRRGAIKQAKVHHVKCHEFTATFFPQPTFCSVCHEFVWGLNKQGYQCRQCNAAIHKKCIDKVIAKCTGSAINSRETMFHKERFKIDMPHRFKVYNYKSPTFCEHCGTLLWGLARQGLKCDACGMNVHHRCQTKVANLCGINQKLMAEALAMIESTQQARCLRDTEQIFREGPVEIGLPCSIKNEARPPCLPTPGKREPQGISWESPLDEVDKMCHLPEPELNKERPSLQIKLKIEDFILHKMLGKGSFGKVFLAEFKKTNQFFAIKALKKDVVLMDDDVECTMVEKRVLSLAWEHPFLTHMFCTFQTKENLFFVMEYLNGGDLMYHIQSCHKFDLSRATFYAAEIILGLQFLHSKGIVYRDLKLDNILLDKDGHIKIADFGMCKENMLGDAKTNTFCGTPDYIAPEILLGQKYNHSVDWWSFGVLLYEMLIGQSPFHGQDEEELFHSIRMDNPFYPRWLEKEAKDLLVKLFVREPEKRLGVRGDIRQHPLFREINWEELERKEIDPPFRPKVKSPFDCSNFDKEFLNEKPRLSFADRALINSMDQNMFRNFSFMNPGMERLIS

Which IC50 [1] does the source give for `CC[C@@H]1CN(C(=O)NCC(F)(F)F)C[C@@H]1c1cnc2cnc3[nH]ccc3n12` [upadacitinib, (3S,4R)-3-ethyl-4-(3H-imidazo [1,2-a]pyrrolo [2,3-e]pyrazin-8-yl)-N-(2,2,2-trifluoroethyl) pyrrolidine-1-carboxamide] here?
The IC50 was > 10 µM.

What about the IC50 [2] of the same molecule?
The IC50 was > 10 µM.

What about the IC50 [3] of the same molecule?
The IC50 was > 10 µM.

And the IC50 [4]?
The IC50 was > 10 µM.

And the IC50 [5]?
The IC50 was > 10 µM.

What about the IC50 [6] of the same molecule?
The IC50 was > 10 µM.

And the IC50 [7]?
The IC50 was > 1.5 µM.

What about the IC50 [8] of the same molecule?
The IC50 was > 4.5 µM.

What about the IC50 [9] of the same molecule?
Its IC50 is > 10 µM.

What about the IC50 [10] of the same molecule?
Its IC50 is > 10 µM.

What about the IC50 [11] of the same molecule?
The IC50 was > 10 µM.

What about the IC50 [12] of the same molecule?
Its IC50 is > 10 µM.

What about the IC50 [13] of the same molecule?
The IC50 was > 10 µM.

And the IC50 [14]?
The IC50 was > 10 µM.

And the IC50 [15]?
Its IC50 is > 10 µM.

What about the IC50 [16] of the same molecule?
Its IC50 is > 10 µM.

What about the IC50 [17] of the same molecule?
The IC50 was > 10 µM.

And the IC50 [18]?
The IC50 was > 10 µM.

And the IC50 [19]?
Its IC50 is > 9.6 µM.

What about the IC50 [20] of the same molecule?
Its IC50 is > 10 µM.

What about the IC50 [21] of the same molecule?
The IC50 was > 10 µM.

And the IC50 [22]?
Its IC50 is > 10 µM.

What about the IC50 [23] of the same molecule?
Its IC50 is > 10 µM.

And the IC50 [24]?
The IC50 was > 10 µM.

What about the IC50 [25] of the same molecule?
Its IC50 is 5.1 µM.

What about the IC50 [26] of the same molecule?
Its IC50 is > 10 µM.

What about the IC50 [27] of the same molecule?
Its IC50 is > 10 µM.

And the IC50 [28]?
Its IC50 is < 1 µM and 0.92 µM.

What about the IC50 [29] of the same molecule?
Its IC50 is 2.4 µM.

And the IC50 [30]?
Its IC50 is > 10 µM.

What about the IC50 [31] of the same molecule?
The IC50 was > 10 µM.

What about the IC50 [32] of the same molecule?
The IC50 was > 10 µM.

And the IC50 [33]?
Its IC50 is > 10 µM.

What about the IC50 [34] of the same molecule?
Its IC50 is > 10 µM.

And the IC50 [35]?
Its IC50 is > 10 µM.

What about the IC50 [36] of the same molecule?
Its IC50 is > 10 µM.

And the IC50 [37]?
Its IC50 is > 10 µM.

What about the IC50 [38] of the same molecule?
The IC50 was > 10 µM.

And the IC50 [39]?
Its IC50 is < 1 µM.

What about the IC50 [40] of the same molecule?
Its IC50 is > 10 µM.

And the IC50 [41]?
Its IC50 is > 10 µM.

What about the IC50 [42] of the same molecule?
Its IC50 is > 10 µM.

And the IC50 [43]?
The IC50 was 9.7 µM.

What about the IC50 [44] of the same molecule?
The IC50 was > 10 µM.

And the IC50 [45]?
The IC50 was > 10 µM.

What about the IC50 [46] of the same molecule?
The IC50 was > 10 µM.
